Laboratory results reported in PMC10627047, “Flavone-based dual PARP-Tubulin inhibitor manifesting efficacy against endometrial cancer” (Journal of Enzyme Inhibition and Medicinal Chemistry, 2023).
Where “and” joins values, the source holds several entries; their conditions need not be identical. Equal values may be shown once.

Legend:
PARP2 = biological target: T1, PARP2 (Homo sapiens, UniProt Q9UGN5); assay: PARP inhibitory assay (NAD/NADH-Glo endpoint, Reaction Biology); format: biochemical; details: 10-dose IC50, 3-fold serial dilution
T1 construct: Reaction Biology Corporation (assay service)
T1 sequence (Q9UGN5 whole entry): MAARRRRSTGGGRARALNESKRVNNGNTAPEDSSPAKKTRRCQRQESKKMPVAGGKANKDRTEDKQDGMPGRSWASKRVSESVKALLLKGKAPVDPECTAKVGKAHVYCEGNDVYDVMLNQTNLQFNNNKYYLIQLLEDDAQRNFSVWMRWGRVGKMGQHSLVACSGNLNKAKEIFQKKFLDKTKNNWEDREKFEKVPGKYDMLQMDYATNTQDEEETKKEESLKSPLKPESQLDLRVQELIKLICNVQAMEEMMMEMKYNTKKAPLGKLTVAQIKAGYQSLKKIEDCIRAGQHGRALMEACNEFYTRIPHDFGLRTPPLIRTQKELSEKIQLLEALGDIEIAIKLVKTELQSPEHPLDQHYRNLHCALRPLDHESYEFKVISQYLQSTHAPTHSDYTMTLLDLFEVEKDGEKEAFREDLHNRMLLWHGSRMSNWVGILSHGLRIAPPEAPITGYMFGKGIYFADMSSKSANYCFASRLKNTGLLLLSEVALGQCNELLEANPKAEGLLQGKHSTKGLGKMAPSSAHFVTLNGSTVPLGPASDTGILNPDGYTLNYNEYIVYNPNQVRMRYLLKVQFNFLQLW
Description: (§1) As such, PARP enzymatic activity transfers ADP-ribose from NAD + substrate into the PAR chain on histone substrate. The amount of NAD + remaining after the enzymatic activity was quantified using the Promega NAD/NADH-Glo™ assay kit, in the endpoint PARP activity assay.
(§2) Enzyme inhibition assays were performed by the Reaction Biology Corporation, Malvern, PA. (http://www.reactionbiology.com). PARP enzymatic activity transfers ADP-ribose from NAD + substrate into the PAR chain on histone substrate. […] NAD+ (Nicotinamide Adenine Dinucleotide), 500 nM; Protein substrate for PARP1, core histones from chicken, 10 µg/mL; protein substrate for PARP2, 5 µM.

PARP1 = biological target: T2, PARP1 (Homo sapiens, UniProt P09874); assay: as above; format: biochemical; details: 10-dose IC50, 3-fold serial dilution
T2 construct: Reaction Biology Corporation (assay service)
T2 sequence (P09874 whole entry): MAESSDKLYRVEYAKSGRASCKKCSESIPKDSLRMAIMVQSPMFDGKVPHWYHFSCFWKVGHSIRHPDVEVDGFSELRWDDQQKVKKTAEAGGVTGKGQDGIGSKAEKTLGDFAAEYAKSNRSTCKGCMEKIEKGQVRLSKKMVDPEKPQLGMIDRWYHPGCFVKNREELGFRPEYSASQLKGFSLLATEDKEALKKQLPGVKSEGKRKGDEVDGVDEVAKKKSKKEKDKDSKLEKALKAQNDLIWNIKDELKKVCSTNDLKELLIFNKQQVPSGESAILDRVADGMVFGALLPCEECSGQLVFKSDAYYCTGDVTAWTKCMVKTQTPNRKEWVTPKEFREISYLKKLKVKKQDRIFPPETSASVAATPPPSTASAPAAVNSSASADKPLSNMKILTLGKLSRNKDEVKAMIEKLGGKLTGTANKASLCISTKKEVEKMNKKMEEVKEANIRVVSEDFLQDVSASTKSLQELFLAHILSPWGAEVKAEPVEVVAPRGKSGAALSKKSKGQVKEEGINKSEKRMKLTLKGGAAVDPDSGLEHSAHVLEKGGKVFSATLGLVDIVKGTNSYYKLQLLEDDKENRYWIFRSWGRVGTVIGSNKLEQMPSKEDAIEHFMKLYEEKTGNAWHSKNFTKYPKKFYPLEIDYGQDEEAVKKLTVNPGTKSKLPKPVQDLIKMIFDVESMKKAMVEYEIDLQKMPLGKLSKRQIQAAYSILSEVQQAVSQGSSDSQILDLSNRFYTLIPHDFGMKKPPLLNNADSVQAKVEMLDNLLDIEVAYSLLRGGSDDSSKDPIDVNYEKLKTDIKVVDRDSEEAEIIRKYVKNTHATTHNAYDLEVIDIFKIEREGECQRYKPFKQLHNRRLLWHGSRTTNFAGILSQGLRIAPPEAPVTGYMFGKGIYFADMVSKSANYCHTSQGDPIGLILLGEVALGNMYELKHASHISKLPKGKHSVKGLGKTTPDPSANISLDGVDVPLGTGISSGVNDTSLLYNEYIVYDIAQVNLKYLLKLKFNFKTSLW
Description: as §1, §2

Ishikawa cells [1] = assay: Mitochondrial membrane potential (rhodamine 123 staining); format: cell-based, human; details: Ishikawa cells, 0.1, 0.5 and 1 μM, 24 h
Description: Mitochondrial membrane potential was measured by rhodamine-123 (RH-123) staining. Ishikawa cells were treated at 0.1, 0.5, and 1 μM of compound 14. Rhodamine dyes accumulate within active and polarised mitochondria under physiological conditions, resulting in robust fluorescence signals. A decline in rhodamine fluorescence intensity is observed when the dyes fail to accumulate within the mitochondria. This happens when the mitochondrial transmembrane potential is compromised. […] The decreased fluorescence patterns associated with apoptotic cell death indicate progressive dissipation of the mitochondrial transmembrane potential (Figure 12).
Rhodamine staining was employed to investigate apoptosis induced by compound 14 in Ishikawa cells. Under physiological conditions, rhodamine dyes are known to accumulate within active and polarised mitochondria, resulting in robust fluorescence signals. However, when the mitochondrial transmembrane potential is compromised the dyes fail to accumulate within the mitochondria, leading to a decline in rhodamine fluorescence intensity. The Rhodamine staining protocol followed was as follows: Ishikawa cells were treated at 0.1, 0.5, and 1 μM for 24 h, and RH-123 (1 μg) (Cat No. R8004) was added 30 min before the termination of the experiment and then washed with PBS before analysis on a fluorescence microscope.[61]

Ishikawa cells [2] = assay: Intracellular ROS (DCFDA staining); format: cell-based, human; details: Ishikawa cells, 100, 500 and 1000 nM, 24 h, vs untreated control
Source text: The intracellular ROS levels in control and compound 14-treated cells were examined using the DCFDA fluorescent dye.
Dichlorodihydrofluorescin diacetate (DCFHDA) is a fluorogenic dye that measures hydroxyl, peroxyl, and other reactive oxygen species (ROS) activity within the cell. The oxidative conversion of DCFH-DA to DCF (2′, 7′ -dichlorofluorescein) leads to the detection of intracellular ROS. As such, an increase in intracellular ROS is indicative of apoptosis in cancer cells Ishikawa cells were treated with compound-14 at 100, 500, and 1000 nM concentrations for 24 h. After 24h cells were stained with DCFHDA (20 µM) (Cat no, 287810) for 45 min. After 45 min, cells were washed with PBS buffer and analysed with a fluorescence microscope.

LC3 in Ishikawa cells = assay: Western blotting, cleavage of LC-3; format: cell-based, human; details: Ishikawa cells, 100, 500 and 1000 nM, 24 h
Description: Literature precedents indicate that autophagy triggers the cleavage of tubulin-associated protein LC-3 yielding cytosolic LC3-I (18 kDa) and autophagosome-associated LC3-II (16 kDa).[50–58] Thus, the ability of compound 14 was evaluated to induce the cleavage of this cytosolic protein. […] Considering the aforementioned cleavage of cytosolic microtubule-associated protein light chain-3 (LC3)-I into LC3-II as an autophagy-specific marker, it was deduced that 14 is an autophagy inducer.
Ishikawa cells were treated with compound-14 at 100, 500, and 1000 nM concentrations for 24 h. After 24h cells were collected and centrifuged at 400 g, washed in PBS and cell pellets were lysed in RIPA buffer in preparation of the whole cell lysate. Supernatants were collected and proteins were estimated using the Bradford reagent. An equal amount of protein (60–80 µg) was loaded into each well for SDS-PAGE. Blocking was done with 5% BSA at room temperature with shaking for 2 h. After the SDS page run was completed, we washed the PVDF membrane and then blocking was done. Blots were incubated with different primary antibodies(1:1000 dilutions), and secondary antibodies (1:10 000 dilutions) and chemiluminescence was captured on Chemidoc after incubating the blots in ECL plus solution. […]

Tubulin = biological target: T3, Tubulin (Sus scrofa, UniProt P02550+P02554); assay: In vitro microtubule assembly (tubulin polymerisation) assay; format: biochemical; details: treatment concentrations 0.1, 1, 5, 10 μM; mean ± SD of three experiments
T3 construct: purchased Cytoskeleton T240 (kit BK006P)
T3 sequence (P02550 whole entry): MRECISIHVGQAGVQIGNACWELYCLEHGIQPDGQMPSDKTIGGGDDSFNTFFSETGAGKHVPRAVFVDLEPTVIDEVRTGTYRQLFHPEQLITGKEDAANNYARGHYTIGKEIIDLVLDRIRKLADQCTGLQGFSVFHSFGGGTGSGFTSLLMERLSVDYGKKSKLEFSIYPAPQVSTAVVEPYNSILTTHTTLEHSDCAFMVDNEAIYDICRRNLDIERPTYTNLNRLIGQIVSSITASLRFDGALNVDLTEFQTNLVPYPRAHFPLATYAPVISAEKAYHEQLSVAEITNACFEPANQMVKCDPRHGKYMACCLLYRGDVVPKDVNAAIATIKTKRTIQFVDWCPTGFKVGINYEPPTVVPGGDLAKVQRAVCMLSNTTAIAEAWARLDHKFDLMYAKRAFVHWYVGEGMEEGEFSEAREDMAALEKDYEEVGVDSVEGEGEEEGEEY
T3 sequence (P02554 whole entry): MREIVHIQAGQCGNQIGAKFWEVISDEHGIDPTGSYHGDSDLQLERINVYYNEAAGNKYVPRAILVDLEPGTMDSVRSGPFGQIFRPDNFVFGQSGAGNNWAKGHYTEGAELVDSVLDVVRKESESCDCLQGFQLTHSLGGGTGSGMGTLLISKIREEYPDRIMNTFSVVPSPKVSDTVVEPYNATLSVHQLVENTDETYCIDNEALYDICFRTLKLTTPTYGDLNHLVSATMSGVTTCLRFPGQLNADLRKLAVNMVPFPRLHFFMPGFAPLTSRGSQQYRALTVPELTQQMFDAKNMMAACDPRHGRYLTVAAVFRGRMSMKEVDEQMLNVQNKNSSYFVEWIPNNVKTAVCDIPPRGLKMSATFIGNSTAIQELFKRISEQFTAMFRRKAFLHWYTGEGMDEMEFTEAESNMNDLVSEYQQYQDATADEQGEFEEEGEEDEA
Description: The assay was performed using the tubulin polymerisation kit (BK006P,Cytoskeleton). Pure tubulin (cat. # T240) was equilibrated in 80 mM PIPES, 1 mM EGTA, 1 mM MgCl2, pH 6.8 buffer (BRB80) and centrifuged at 75 000 rpm for 10 min in an TLA-100 rotor in a centrifuge.

Ishikawa cells [3] = assay: Acridine orange staining, autophagy; format: cell-based, human; details: Ishikawa cells, 0.1, 0.5 and 1 µM
Description: Compound 14 was evaluated for its ability to induce autophagy by acridine orange staining assay. […] This shift towards red fluorescence represents an elevation in autophagic flux, reflecting an active process of cellular degradation and recycling.
The Autophagy induction ability of compound 14 was assessed by acridine orange staining which is used to measure the autophagic acidic vesicular organnelles. Ishikawa cell were seeded in a six-well plate and treated with compound 14 for 48 h. Incubation of the cells was done with 1 mg/mL Acridine orange (Cat no. A9231) before the termination of the experiment. Cells were then washed with PBS and then analysed with a fluorescence microscope. […] A9231.

IC50 (PARP2): 109 nM | IC50 (PARP1): 74 nM and 74.6 nM | IC50 (Tubulin): 1.4 ± 0.3 µM
Structure (SMILES): O=c1cc(-c2ccc(F)cc2)oc2cc(-c3ccoc3)ccc12 [Compound 14, 2–(4-fluorophenyl)-7-(furan-3-yl)-4H-chromen-4-one]
Mitochondrial membrane potential (rhodamine 123 fluorescence) (Ishikawa cells [1]): reduction in rhodamine fluorescence in a concentration-dependent manner | Intracellular ROS levels (DCFDA fluorescence) (Ishikawa cells [2]): significant increase in fluorescence intensity | Cleavage of LC-3 (autophagy marker, western blot) (LC3 in Ishikawa cells): concentration-dependent cleavage of LC3 | Autophagy induction (acridine orange staining) (Ishikawa cells [3]): induces autophagy by increasing autophagic flux in a concentration-dependent manner
